Values of other authors, collected in PMC3241508 (Bioconjugate chemistry, 2011).

oral absorption into the blood stream (later study): good oral absorption | oral absorption (oral): poorly absorbed orally
Substance: dextran sulfate
